# Reference: US20260232767A1, “INTERLEUKIN-23 RECEPTOR ANTAGONIST PEPTIDES FOR USE IN THE TREATMENT OF PSORIASIS” (Janssen Pharmaceutica NV, priority 2023, published 2026)
# Tested on: subjects with moderate-to-severe plaque psoriasis
# Assay: PSSD symptom and sign scores, Example 2
# Type: in vivo, human
# Conditions: for Change from Baseline in PSSD Sign Score, LSMean / Change from Baseline in PSSD Symptom Score, LSMean: MMRM
compound,measurement,setting,value
"CC(=O)NCCCC[C@@H]1NC(=O)[C@H](Cc2c[nH]c3c(C)cccc23)NC(=O)[C@H]([C@@H](C)O)NC(=O)[C@H](CC(N)=O)NC(=O)[C@@H](NC(C)=O)C(C)(C)SSC(C)(C)[C@@H](C(=O)N[C@@H](Cc2ccc(OCCN)cc2)C(=O)N[C@@H](Cc2ccc3ccccc3c2)C(=O)NC2(C(=O)N[C@@H](CCC(=O)O)C(=O)N[C@@H](CC(N)=O)C(=O)N[C@@H](Cc3cccnc3)C(=O)N(C)CC(N)=O)CCOCC2)NC1=O [IL-23 receptor antagonist peptide, Ac-[Pen]*-N-T-[W(7-Me)]-[Lys(Ac)]-[Pen]*-Phe[4-(2-aminoethoxy)]-[2-Nal]-[THP]-E-N-[3-Pal]-Sarc-NH2 (*[Pen]-[Pen]* formdisulfidebond)]",Subjects Achieving PSSD Sign Score 0 (%),"Week 16, 25 mg QD, Baseline Sign Score ≥1, N=43",(2.3%)
same,Subjects Achieving PSSD Symptom Score 0 (%),"Week 16, 25 mg QD, Baseline Symptom Score ≥1, N=43",(16.3%)
same,"Change from Baseline in PSSD Sign Score, LSMean","Week 16, 25 mg QD",−31.7
same,"Change from Baseline in PSSD Symptom Score, LSMean","Week 16, 25 mg QD",−28.0
same,"Change from Baseline in PSSD Sign Score, Mean","Week 16, 50 mg QD",−42.7
same,"Change from Baseline in PSSD Sign Score, Median","Week 16, 50 mg QD",−43.0
same,"Change from Baseline in PSSD Symptom Score, Mean","Week 16, 50 mg QD",−36.7
same,"Change from Baseline in PSSD Symptom Score, Median","Week 16, 50 mg QD",−36.0
same,Subjects Achieving PSSD Sign Score 0 (%),"Week 16, 50 mg QD, Baseline Sign Score ≥1, N=43",(14.0%)
same,Subjects Achieving PSSD Symptom Score 0 (%),"Week 16, 50 mg QD, Baseline Symptom Score ≥1, N=42",(23.8%)
same,"Change from Baseline in PSSD Sign Score, LSMean","Week 16, 50 mg QD",−42.9
same,"Change from Baseline in PSSD Symptom Score, LSMean","Week 16, 50 mg QD",−35.4
same,"Change from Baseline in PSSD Sign Score, Mean","Week 16, 100 mg BID",−51.1
same,"Change from Baseline in PSSD Sign Score, Median","Week 16, 100 mg BID",−55.0
same,"Change from Baseline in PSSD Symptom Score, Mean","Week 16, 100 mg BID",−44.0
same,"Change from Baseline in PSSD Symptom Score, Median","Week 16, 100 mg BID",−42.0
same,Subjects Achieving PSSD Sign Score 0 (%),"Week 16, 100 mg BID, Baseline Sign Score ≥1, N=42",(14.3%)
same,Subjects Achieving PSSD Symptom Score 0 (%),"Week 16, 100 mg BID, Baseline Symptom Score ≥1, N=42",(26.2%)
same,"Change from Baseline in PSSD Sign Score, LSMean","Week 16, 100 mg BID",−50.6
same,"Change from Baseline in PSSD Symptom Score, LSMean","Week 16, 100 mg BID",−40.2
same,"Change from Baseline in PSSD Sign Score, Median","Week 16, 100 mg QD",−45.0
same,"Change from Baseline in PSSD Symptom Score, Mean","Week 16, 100 mg QD",−29.4
same,"Change from Baseline in PSSD Symptom Score, Median","Week 16, 100 mg QD",−31.0
same,Subjects Achieving PSSD Sign Score 0 (%),"Week 16, 100 mg QD, Baseline Sign Score ≥1, N=43",(16.3%)
same,Subjects Achieving PSSD Symptom Score 0 (%),"Week 16, 100 mg QD, Baseline Symptom Score ≥1, N=43",(27.9%)
same,"Change from Baseline in PSSD Sign Score, LSMean","Week 16, 100 mg QD",−45.3
same,"Change from Baseline in PSSD Symptom Score, LSMean","Week 16, 100 mg QD",−36.8
same,"Change from Baseline in PSSD Sign Score, Mean","Week 24, 25 mg BID",−39.8
same,"Change from Baseline in PSSD Sign Score, Median","Week 24, 25 mg BID",−41.0
same,"Change from Baseline in PSSD Symptom Score, Mean","Week 24, 25 mg BID",−33.3
same,"Change from Baseline in PSSD Symptom Score, Median","Week 24, 25 mg BID",−29.0
same,Subjects Achieving PSSD Sign Score 0 (%),"Week 24, 25 mg BID, Baseline Sign Score ≥1, N=41",(4.9%)
same,Subjects Achieving PSSD Symptom Score 0 (%),"Week 24, 25 mg BID, Baseline Symptom Score ≥1, N=41",(7.3%)
same,"Change from Baseline in PSSD Sign Score, LSMean","Week 24, 25 mg BID",−37.7
same,"Change from Baseline in PSSD Symptom Score, LSMean","Week 24, 25 mg BID",−32.1
same,"Change from Baseline in PSSD Sign Score, Mean","Week 24, 25 mg QD",−38.6
same,"Change from Baseline in PSSD Sign Score, Median","Week 24, 25 mg QD",−44.5
same,"Change from Baseline in PSSD Symptom Score, Mean","Week 24, 25 mg QD",−32.9
same,"Change from Baseline in PSSD Symptom Score, Median","Week 24, 25 mg QD",−33.0
same,Subjects Achieving PSSD Sign Score 0 (%),"Week 24, 25 mg QD, Baseline Sign Score ≥1, N=43",(14.0%)
same,Subjects Achieving PSSD Symptom Score 0 (%),"Week 24, 25 mg QD, Baseline Symptom Score ≥1, N=43",(20.9%)
same,"Change from Baseline in PSSD Sign Score, LSMean","Week 24, 25 mg QD",−31.6
same,"Change from Baseline in PSSD Symptom Score, LSMean","Week 24, 25 mg QD",−25.3
same,"Change from Baseline in PSSD Sign Score, Mean","Week 24, 50 mg QD",−45.7
same,"Change from Baseline in PSSD Sign Score, Median","Week 24, 50 mg QD",−47.5
same,"Change from Baseline in PSSD Symptom Score, Mean","Week 24, 50 mg QD",−38.8
same,"Change from Baseline in PSSD Symptom Score, Median","Week 24, 50 mg QD",−40.0
same,Subjects Achieving PSSD Sign Score 0 (%),"Week 24, 50 mg QD, Baseline Sign Score ≥1, N=43",(9.3%)
same,Subjects Achieving PSSD Symptom Score 0 (%),"Week 24, 50 mg QD, Baseline Symptom Score ≥1, N=42",(14.3%)
same,"Change from Baseline in PSSD Sign Score, LSMean","Week 24, 50 mg QD",−45.3
same,"Change from Baseline in PSSD Symptom Score, LSMean","Week 24, 50 mg QD",−36.3
same,"Change from Baseline in PSSD Sign Score, Mean","Week 24, 100 mg BID",−51.6
same,"Change from Baseline in PSSD Sign Score, Median","Week 24, 100 mg BID",−53.0
same,"Change from Baseline in PSSD Symptom Score, Mean","Week 24, 100 mg BID",−44.8
same,"Change from Baseline in PSSD Symptom Score, Median","Week 24, 100 mg BID",−44.0
same,Subjects Achieving PSSD Sign Score 0 (%),"Week 24, 100 mg BID, Baseline Sign Score ≥1, N=42",(19.0%)
same,Subjects Achieving PSSD Symptom Score 0 (%),"Week 24, 100 mg BID, Baseline Symptom Score ≥1, N=42",(21.4%)
same,"Change from Baseline in PSSD Sign Score, LSMean","Week 24, 100 mg BID",−50.0
same,"Change from Baseline in PSSD Symptom Score, LSMean","Week 24, 100 mg BID",−40.3
same,"Change from Baseline in PSSD Sign Score, Mean","Week 24, 100 mg QD",−41.9
same,"Change from Baseline in PSSD Sign Score, Median","Week 24, 100 mg QD",−44.0
same,"Change from Baseline in PSSD Symptom Score, Mean","Week 24, 100 mg QD",−28.4
same,"Change from Baseline in PSSD Symptom Score, Median","Week 24, 100 mg QD",−26.0
same,Subjects Achieving PSSD Sign Score 0 (%),"Week 24, 100 mg QD, Baseline Sign Score ≥1, N=43",(11.6%)
same,Subjects Achieving PSSD Symptom Score 0 (%),"Week 24, 100 mg QD, Baseline Symptom Score ≥1, N=43",(25.6%)
same,"Change from Baseline in PSSD Sign Score, LSMean","Week 24, 100 mg QD",−46.3
same,"Change from Baseline in PSSD Symptom Score, LSMean","Week 24, 100 mg QD",−36.4
same,"Change from Baseline in PSSD Sign Score, Mean","Week 24, Placebo → 100 mg QD",−40.2
same,"Change from Baseline in PSSD Sign Score, Median","Week 24, Placebo → 100 mg QD",−40.0
same,"Change from Baseline in PSSD Symptom Score, Mean","Week 24, Placebo → 100 mg QD",−26.6
same,"Change from Baseline in PSSD Symptom Score, Median","Week 24, Placebo → 100 mg QD",−26.0
same,Subjects Achieving PSSD Sign Score 0 (%),"Week 24, Placebo → 100 mg QD, Baseline Sign Score ≥1, crossed-over subjects only",(8.6%)
same,Subjects Achieving PSSD Symptom Score 0 (%),"Week 24, Placebo → 100 mg QD, Baseline Symptom Score ≥1, crossed-over subjects only",(11.4%)
same,"Change from Baseline in PSSD Sign Score, LSMean","Week 24, Placebo → 100 mg QD",−40.3
same,"Change from Baseline in PSSD Symptom Score, LSMean","Week 24, Placebo → 100 mg QD",−29.2
same,"Change from Baseline in PSSD Sign Score, Mean","Week 32, 25 mg BID",−38.3
same,"Change from Baseline in PSSD Sign Score, Median","Week 32, 25 mg BID",−38.0
same,"Change from Baseline in PSSD Symptom Score, Mean","Week 32, 25 mg BID",−31.0
same,"Change from Baseline in PSSD Symptom Score, Median","Week 32, 25 mg BID",−28.0
same,Subjects Achieving PSSD Sign Score 0 (%),"Week 32, 25 mg BID, Baseline Sign Score ≥1, N=41",(4.9%)
same,Subjects Achieving PSSD Symptom Score 0 (%),"Week 32, 25 mg BID, Baseline Symptom Score ≥1, N=41",(7.3%)
same,"Change from Baseline in PSSD Sign Score, LSMean","Week 32, 25 mg BID",−38.9
same,"Change from Baseline in PSSD Symptom Score, LSMean","Week 32, 25 mg BID",−31.4
same,"Change from Baseline in PSSD Sign Score, Mean","Week 32, 25 mg QD",−37.2
same,"Change from Baseline in PSSD Sign Score, Median","Week 32, 25 mg QD",−39.0
same,"Change from Baseline in PSSD Symptom Score, Mean","Week 32, 25 mg QD",−32.5
same,"Change from Baseline in PSSD Symptom Score, Median","Week 32, 25 mg QD",−32.0
same,Subjects Achieving PSSD Sign Score 0 (%),"Week 32, 25 mg QD, Baseline Sign Score ≥1, N=43",(9.3%)
same,Subjects Achieving PSSD Symptom Score 0 (%),"Week 32, 25 mg QD, Baseline Symptom Score ≥1, N=43",(20.9%)
same,"Change from Baseline in PSSD Sign Score, LSMean","Week 32, 25 mg QD",−31.3
same,"Change from Baseline in PSSD Symptom Score, LSMean","Week 32, 25 mg QD",−26.2
same,"Change from Baseline in PSSD Sign Score, Mean","Week 32, 50 mg QD",−39.7
same,"Change from Baseline in PSSD Sign Score, Median","Week 32, 50 mg QD",−45.0
same,"Change from Baseline in PSSD Symptom Score, Mean","Week 32, 50 mg QD",−35.9
same,"Change from Baseline in PSSD Symptom Score, Median","Week 32, 50 mg QD",−32.0
same,Subjects Achieving PSSD Sign Score 0 (%),"Week 32, 50 mg QD, Baseline Sign Score ≥1, N=43",(9.3%)
same,Subjects Achieving PSSD Symptom Score 0 (%),"Week 32, 50 mg QD, Baseline Symptom Score ≥1, N=42",(14.3%)
same,"Change from Baseline in PSSD Sign Score, LSMean","Week 32, 50 mg QD",−39.0
same,"Change from Baseline in PSSD Symptom Score, LSMean","Week 32, 50 mg QD",−32.9
same,"Change from Baseline in PSSD Sign Score, Mean","Week 32, 100 mg BID",−52.3
same,"Change from Baseline in PSSD Sign Score, Median","Week 32, 100 mg BID",−54.0
same,"Change from Baseline in PSSD Symptom Score, Mean","Week 32, 100 mg BID",−45.5
same,"Change from Baseline in PSSD Symptom Score, Median","Week 32, 100 mg BID",−47.0
same,Subjects Achieving PSSD Sign Score 0 (%),"Week 32, 100 mg BID, Baseline Sign Score ≥1, N=42",(21.4%)
same,Subjects Achieving PSSD Symptom Score 0 (%),"Week 32, 100 mg BID, Baseline Symptom Score ≥1, N=42",(23.8%)
same,"Change from Baseline in PSSD Sign Score, LSMean","Week 32, 100 mg BID",−51.0
same,"Change from Baseline in PSSD Symptom Score, LSMean","Week 32, 100 mg BID",−40.9
same,"Change from Baseline in PSSD Sign Score, Mean","Week 32, 100 mg QD",−42.3
same,"Change from Baseline in PSSD Sign Score, Median","Week 32, 100 mg QD",−43.0
